In one data set the target is T1, human mGluR2 receptor (Homo sapiens, UniProt Q14416).
T1 construct: expressed in transfected cells; host or cells: CHO cells (membrane preparation)
In words: [35S]GTPγS binding assay (GTPγS-PAM): positive allosteric modulation in presence of glutamate at EC25, membranes from transfected CHO cells. The data set is classed as biochemical. The note with it: in presence of mGluR2 agonist glutamate at predetermined EC25 concentration, averages of duplicate values of 11-concentration response curves, read-out: GTPgS - hR2 PAM pEC50 (converted). Summed up: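 Potentiation was read as filter-retained [35S]GTPγS (0.1 nM final, 30 min, 30° C.) after a 30 min, 30° C. preincubation of human mGluR2 CHO membranes (15 μg/well) with EC25 glutamate and 11 modulator concentrations spanning 0.3 nM-50 μM. The buffer was 50 mM HEPES pH 7.4, NaCl, MgCl2, 50 μM GDP and saponin. Cold 10 μM GTP defined nonspecific binding; data were fitted by a four-parameter logistic.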
For orientation: GTPγS resists hydrolysis and so accumulates on activated G proteins.

T1 sequence (Q14416 19-872): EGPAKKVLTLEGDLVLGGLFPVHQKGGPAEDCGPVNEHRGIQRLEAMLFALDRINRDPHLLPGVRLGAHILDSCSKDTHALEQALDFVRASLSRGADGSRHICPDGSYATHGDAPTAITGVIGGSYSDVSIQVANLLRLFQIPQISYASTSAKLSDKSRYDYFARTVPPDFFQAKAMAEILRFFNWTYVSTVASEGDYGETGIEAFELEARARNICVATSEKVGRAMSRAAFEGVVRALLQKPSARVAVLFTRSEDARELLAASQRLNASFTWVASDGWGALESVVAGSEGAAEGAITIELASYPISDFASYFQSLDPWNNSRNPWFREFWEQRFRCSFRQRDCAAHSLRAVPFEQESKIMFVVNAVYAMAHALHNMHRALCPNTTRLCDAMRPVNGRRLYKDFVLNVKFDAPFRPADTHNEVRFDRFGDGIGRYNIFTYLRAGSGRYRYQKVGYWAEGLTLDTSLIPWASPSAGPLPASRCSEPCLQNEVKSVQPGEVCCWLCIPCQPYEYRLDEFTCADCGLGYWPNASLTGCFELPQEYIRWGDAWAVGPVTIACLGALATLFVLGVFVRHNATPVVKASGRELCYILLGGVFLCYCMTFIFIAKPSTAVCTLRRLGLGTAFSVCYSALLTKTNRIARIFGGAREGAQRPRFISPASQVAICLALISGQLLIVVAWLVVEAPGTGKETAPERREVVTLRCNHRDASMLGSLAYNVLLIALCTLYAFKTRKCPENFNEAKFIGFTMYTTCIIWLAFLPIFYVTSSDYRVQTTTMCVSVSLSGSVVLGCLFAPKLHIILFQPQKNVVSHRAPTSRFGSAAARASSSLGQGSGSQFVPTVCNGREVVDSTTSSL

As for `CC(C)CCn1ccc(-c2ccc(NCc3cccc(F)c3)cc2)c(C#N)c1=O` [1-199], the melting point (in general, the temperature of the solid-liquid transition) was 136 °C. The EC50 on human mGluR2 receptor is 63.1 nM.

Consider `CC(C)CCn1ccc(-c2ccc(NCc3ccc(F)cc3)cc2)c(C#N)c1=O` [1-200], for which the melting point was 162 °C. In addition, on human mGluR2 receptor, the EC50 is 79.4 nM.

Take `CC(C)CCn1ccc(-c2ccc(NCc3cccc(Cl)c3)cc2)c(C#N)c1=O` [1-202]: the melting point came out at 146 °C. For the same compound, the EC50 on human mGluR2 receptor is 31.6 nM.

For the compound `COc1ccc(CNc2ccc(-c3ccn(CCC(C)C)c(=O)c3C#N)cc2)cc1` [1-203], the melting point worked out at 173 °C. Besides, the EC50 at human mGluR2 receptor is 316 nM.

The compound `CC(C)CCn1ccc(-c2ccc(NCc3cccc(C#N)c3)cc2)c(C#N)c1=O` [1-204] registered a melting point of 157 °C. For the same compound, the EC50 at human mGluR2 receptor was 25.1 nM.

`CC(C)CCn1ccc(-c2ccc(NCc3ccc(C#N)cc3)cc2)c(C#N)c1=O` [1-206] yielded a melting point of 209 °C. Moreover, at human mGluR2 receptor, the EC50 was 50.1 nM.

The compound `CC(C)CCn1ccc(-c2ccc(NCc3ccncc3)cc2)c(C#N)c1=O` [1-210] displayed a melting point of 73 °C. In addition, on human mGluR2 receptor, the EC50 was 1000 nM.

In turn, `CC(C)CCn1ccc(-c2ccc(CN(C)Cc3ccncc3)cc2)c(C#N)c1=O` [1-211] gave a melting point of 142 °C. Further, at human mGluR2 receptor, the EC50 was 631 nM.

For the compound `CC(C)CCn1ccc(-c2ccc(CN(C)Cc3ccccn3)cc2)c(C#N)c1=O` [1-212], the melting point amounted to 294 °C. Further, the EC50 on human mGluR2 receptor was 1000 nM.

Compound `CC(C)CCn1ccc(-c2cccc(NS(C)(=O)=O)c2)c(C#N)c1=O` [1-215] showed a melting point of 70 °C. In addition, the EC50 on human mGluR2 receptor was 3160 nM.

The compound `CC(C)CCn1ccc(-c2ccc(N3CCC(O)CC3)cc2)c(C#N)c1=O` [1-220] gave a melting point of 213 °C. At human mGluR2 receptor, the EC50 was 1260 nM.

Consider `CC(C)CCn1ccc(-c2ccc(N3CCOCC3)cc2)c(C#N)c1=O` [1-223, 3-cyano-4-(4-(N-morpholyl)phenyl)-1-(3-methylbutyl)pyridine-2(1H)-one], for which the melting point was found to be 171 °C. Moreover, at human mGluR2 receptor, the EC50 is 2000 nM.

The compound `COc1cc(-c2ccn(CCC(C)C)c(=O)c2C#N)ccc1N1CCOCC1` [1-225] displayed a melting point of 151 °C. Also, the EC50 at human mGluR2 receptor is 2000 nM.

`CC(C)CCn1ccc(-c2ccc(N3CCOCC3)c(Br)c2)c(C#N)c1=O` [1-226] had a melting point of 118 °C. At human mGluR2 receptor, the EC50 was 126 nM.

The compound `CC(C)CCn1ccc(-c2ccc(N3CC(C)OC(C)C3)cc2)c(C#N)c1=O` (stereo not shown) [1-227] showed a melting point of 162 °C. On human mGluR2 receptor, the EC50 was 501 nM.

Compound `CC(C)CCn1ccc(-c2ccc(N3CCOc4ccccc43)cc2)c(C#N)c1=O` [1-228] gave a melting point of 148 °C. Also, the EC50 at human mGluR2 receptor is 79.4 nM.

As for `CC(=O)N1CCN(c2cccc(-c3ccn(CCC(C)C)c(=O)c3C#N)c2)CC1` [1-230], the melting point worked out at 143 °C. Also, the EC50 on human mGluR2 receptor is 501 nM.

`CC(=O)c1ccc(-c2ccn(CCC(C)C)c(=O)c2C#N)cc1` [1-238]: the melting point turned out to be 130 °C. Further, the EC50 at human mGluR2 receptor is 3160 nM.

Compound `COC(=O)CCc1ccc(-c2ccn(CCC(C)C)c(=O)c2C#N)cc1` [1-239] came in with a melting point of 120 °C. On human mGluR2 receptor, the EC50 was 794 nM.

Regarding `CC(C)CCn1ccc(-c2ccc(CC(=O)N(C)C)cc2)c(C#N)c1=O` [1-244], the melting point was 122 °C. Further, the EC50 at human mGluR2 receptor was 6310 nM.

Turning to `CC(C)CCn1ccc(-c2ccc(C(=O)N(C)Cc3ccccc3)cc2)c(C#N)c1=O` [1-245], the melting point fell in the range of 135 to 140 °C. Moreover, at human mGluR2 receptor, the EC50 is 794 nM.

In the case of `CC(C)CCn1ccc(-c2ccc(C(=O)N3CCN(Cc4ccc(OC(F)(F)F)c(Cl)c4)CC3)cc2)c(C#N)c1=O` [1-247], the melting point is 217 °C. Moreover, the EC50 at human mGluR2 receptor was 398 nM.

`CC(C)CCn1ccc(-c2ccc3c(c2)CCO3)c(C#N)c1=O` [1-251] came in with a melting point of 117 °C. The EC50 at human mGluR2 receptor is 1260 nM.

`CC(C)CCn1ccc(-c2ccc3c(c2)OCO3)c(C#N)c1=O` [1-252]: the melting point was in the range of 120 to 121 °C. For the same compound, the EC50 on human mGluR2 receptor is 6310 nM.

`CC(C)CCn1ccc(-c2ccc(CC#N)cc2)c(C#N)c1=O` [1-254] came in with a melting point of 122 °C. Besides, the EC50 on human mGluR2 receptor is 2510 nM.

As for `CC(C)CCn1ccc(-c2ccc(C(C#N)c3ccn(CCC(C)C)c(=O)c3C#N)cc2)c(C#N)c1=O` (stereo not shown) [1-255], the melting point was determined as 233 °C. Moreover, on human mGluR2 receptor, the EC50 is 794 nM.

As for `CSc1ccc(-c2ccn(CCC(C)C)c(=O)c2C#N)cc1` [1-256], the melting point was 128 °C. In addition, at human mGluR2 receptor, the EC50 is 158 nM.

Take `COc1ccc(CCc2ccn(CCC(C)C)c(=O)c2C#N)cc1` [1-265]: the melting point was determined as 88 °C. Also, the EC50 at human mGluR2 receptor was 1260 nM.

In the case of `CC(C)CCn1ccc(C#Cc2ccc(N(C)C)cc2)c(C#N)c1=O` [1-270], the melting point came out at 166 °C. The EC50 on human mGluR2 receptor is 100 nM.

The compound `CC(C)CCn1ccc(OCc2ccccc2)c(C#N)c1=O` [1-275] came in with a melting point of 174 °C. Moreover, the EC50 at human mGluR2 receptor was 1260 nM.

Turning to `CC(C)CCn1ccc(OCc2cccc(OC(F)(F)F)c2)c(C#N)c1=O` [1-279], the melting point worked out at 116 °C. On human mGluR2 receptor, the EC50 was 398 nM.

For the compound `COc1ccc(Oc2ccn(CCC(C)C)c(=O)c2C#N)cc1` [1-282], the melting point is 153 °C. Besides, at human mGluR2 receptor, the EC50 was 794 nM.

For the compound `CC(C)CCn1ccc(OCc2ccc(OC(F)F)cc2)c(C#N)c1=O` [1-284], the melting point worked out at 190 °C. Further, at human mGluR2 receptor, the EC50 was 631 nM.

Compound `CC(C)CCn1ccc(OC2Cc3ccccc3C2)c(C#N)c1=O` [1-288] gave a melting point of 169 °C. For the same compound, on human mGluR2 receptor, the EC50 is 1000 nM.

Compound `CCOC(=O)c1ccc(-c2cccc(COc3ccn(CCC(C)C)c(=O)c3C#N)c2)cc1` [1-290] came in with a melting point of 148 °C. For the same compound, the EC50 at human mGluR2 receptor was 158 nM.

`CC(C)CCn1ccc(OCc2ccc(CN3CCOCC3)cc2)c(C#N)c1=O` [1-292] showed a melting point of 154 °C. Also, the EC50 on human mGluR2 receptor was 1260 nM.

The compound `CC(C)CCn1ccc(OCCN(C)Cc2cccc(F)c2)c(C#N)c1=O` [1-293] displayed a melting point of 209 °C. The EC50 on human mGluR2 receptor was 2510 nM.

Turning to `CCCCn1ccc(Nc2ccc(Oc3cccnc3)cc2)c(C#N)c1=O` [1-296], the melting point amounted to 151 °C. The EC50 on human mGluR2 receptor was 1580 nM.

`CCCCn1ccc(N2CCN(Cc3cc(F)cc(C(F)(F)F)c3)CC2)c(C#N)c1=O` [2-001] gave a melting point of 183 °C. In addition, the EC50 at human mGluR2 receptor was 3160 nM.

`CCCCn1ccc(N2CCN(Cc3ccc(OC(F)(F)F)c(Cl)c3)CC2)c(C#N)c1=O` [2-002] yielded a melting point of 127 °C. In addition, the EC50 at human mGluR2 receptor was 316 nM.

For `CCCCn1ccc(N2CCN(Cc3ccc(OCC4CC4)c(Cl)c3)CC2)c(C#N)c1=O` [2-003], the melting point was determined as 134 °C. For the same compound, the EC50 on human mGluR2 receptor is 158 nM.

As to `CC(C)Cn1ccc(N2CCN(Cc3ccc(OC(F)(F)F)c(Cl)c3)CC2)c(C#N)c1=O` [2-010], the melting point amounted to 112 °C. The EC50 on human mGluR2 receptor was 1000 nM.

`CC(C)CCn1ccc(N2CCN(Cc3ccc(OC(F)(F)F)c(Cl)c3)CC2)c(C#N)c1=O` [2-022] registered a melting point of 256 °C. In addition, at human mGluR2 receptor, the EC50 was 158 nM.

For the compound `CC(C)CCn1ccc(N2CCN(c3ncccc3C(F)(F)F)CC2)c(C#N)c1=O` [2-026], the melting point is 135 °C. Besides, the EC50 at human mGluR2 receptor was 200 nM.

Turning to `CC(C)CCn1ccc(N2CCN(c3nccc(C(F)(F)F)n3)CC2)c(C#N)c1=O` [2-029], the melting point stood at 155 °C. Moreover, the EC50 at human mGluR2 receptor is 251 nM.

Turning to `CC(C)CCn1ccc(N2CCN(c3nc4ccccc4o3)CC2)c(C#N)c1=O` [2-035], the melting point was determined as 288 °C. The EC50 on human mGluR2 receptor was 1000 nM.

As for `CC(C)CCn1ccc(C(=O)N2CCN(c3ncccn3)CC2)c(C#N)c1=O` [2-037], the melting point stood at 223 °C. Also, on human mGluR2 receptor, the EC50 is 1000 nM.

`N#Cc1c(N2CCN(Cc3cc(F)cc(C(F)(F)F)c3)CC2)ccn(CC2CC2)c1=O` [2-038] yielded a melting point of 140 °C. On human mGluR2 receptor, the EC50 is 5010 nM.

In the case of `N#Cc1c(N2CCN(Cc3ccc(OC(F)(F)F)c(Cl)c3)CC2)ccn(CC2CC2)c1=O` [2-039], the melting point amounted to 125 °C. Besides, the EC50 on human mGluR2 receptor was 794 nM.

Take `N#Cc1c(N2CCN(Cc3ccc(OCC4CC4)c(Cl)c3)CC2)ccn(CC2CC2)c1=O` [2-040]: the melting point was found to be 157 °C. Also, the EC50 at human mGluR2 receptor is 501 nM.

The compound `N#Cc1c(N2CCN(CCc3ccccc3)CC2)ccn(Cc2ccc(OC(F)(F)F)cc2)c1=O` [2-043] yielded a melting point of 110 °C. Besides, the EC50 on human mGluR2 receptor is 251 nM.

As for `N#Cc1c(N2CCN(Cc3ccc(F)cc3)CC2)ccn(Cc2ccc(OC(F)(F)F)cc2)c1=O` [2-044], the melting point stood at 156 °C. Further, the EC50 at human mGluR2 receptor is 1580 nM.

`N#Cc1c(N2CCN(CC(=O)c3ccccc3)CC2)ccn(Cc2ccc(OC(F)(F)F)cc2)c1=O` [2-046] gave a melting point of 92 °C. On human mGluR2 receptor, the EC50 was 3160 nM.

Take `N#Cc1c(N2CCN(c3ncccc3C(F)(F)F)CC2)ccn(Cc2ccc(OC(F)(F)F)cc2)c1=O` [2-048]: the melting point amounted to 258 °C. Moreover, the EC50 at human mGluR2 receptor is 79.4 nM.

Consider `N#Cc1c(N2CCN(Cc3ccc(F)c(F)c3)CC2)ccn(Cc2ccc(F)cc2)c1=O` [2-051], for which the melting point stood at 239 °C. Also, the EC50 at human mGluR2 receptor was 3160 nM.

As to `CC(C)CCn1ccc(NC2CCN(c3ccc(C(F)(F)F)cn3)CC2)c(C#N)c1=O` [3-004], the melting point was 188 °C. Besides, the EC50 on human mGluR2 receptor is 251 nM.
